Patent publication US20030212136A1 (priority 2003, published 2003)
Values after ≈ are worked out from the molar mass of the structure shown. Like-named read-outs stand apart in the source and are kept apart here. Blank lines part the entries; values can stand above or below the molecule they belong to.

Tests used:
physchem = conditions: water
brain dopamine = conditions: rats, diet supplemented for 2 weeks; 70% depletion in nonsupplemented rodents; cited from earlier work
GP3A transgenic mice = conditions: creatine supplementation; cited from earlier work
[1] = tested on: patients with various muscular dystrophies; conditions: supplemented for 8 weeks; cited from earlier work
[2] = gastric pH range of 1-2, aqueous solution; cited from earlier work

Compound: CN(CC(=O)O)C(=N)N.O [creatine monohydrate]
- partition coefficient (Partition coefficient; studies in the laboratory): 0.015±0.007

- solubility thermodynamic (physchem): 89.3 mg/mL (≈ 403 mM)
Compound: CN(CC(=O)OCc1ccccc1)C(=N)N [Creatine Benzyl Ester, creatine benzyl ester]

- solubility thermodynamic (physchem): 206 mg/mL (≈ 1290 mM)
Compound: CCOC(=O)CN(C)C(=N)N [Creatine Ethyl Ester, creatine ethyl ester]

Compound: CN(CC(=O)O)C(=N)N [Creatine]
- reduction in brain dopamine (brain dopamine): 10%
- increase of life-span (GP3A transgenic mice): up to 26 days
- improvement in neuromuscular symptom score [1]: 10%
- increase in strength [1]: 3%
- partition coefficient (Partition coefficient): 0.015
- creatinine/creatine ratio at equilibrium [2]: greater than or equal to 30
